Assay [1] has as its system N. meningitidis Nm2C4.3 strain. Put plainly: Bactericidal activity, colony forming unit count after treatment in liquid culture. To be noted: 15 min; for bactericidal effect: Gentamicin 150 μg/ml, Trifluoperazine 10 to 50 μM. In kind it is cell-based, Neisseria meningitidis. Here is the method:
N. meningitidis Nm2C4.3 strain grown in liquid culture at 10^7 CFU/ml were treated with increasing concentrations of Trifluoperazine (10 to 50 μM) or Gentamicin (150 μg/ml) for 15 minutes (A) Bactericidal activity was determined by the count of colony forming units on GCB agar plates 24 h after treatment. (B) Images of the non-treated bacteria or bacteria treated with 30 μM TFP grown for 24 h on GCB agar plates.
Nm2C4.3, a piliated capsulated Opa^−Opc^− variant of the serogroup C meningococcal clinical isolate 8013, was cultured in Dulbecco's Modified Eagle Medium (DMEM) 4.5 g/L-Glutamax media 0.1% BSA during two hours at 37° C. 5% CO2. A bacterial suspension at optical density (OD) 0.1 was then distributed in 24-well plate (1 ml/well). After 1 hour of incubation, Trifluoperazine (Sigma #T8516, stock solution in PBS) was added to obtain final concentrations of 10, 20, 30, 40, and 50 μM. Gentamicin (150 μg/ml in DMEM) and PBS alone were used as controls. After 15 min treatment, serial dilutions were performed in physiological water and 100 μl of each dilution were plated on Petri dishes containing GCB solid media (BD, Difco GC media) containing supplements, incubated overnight and the colony forming units were counted.

Assay [2] relates to HDMECs infected with N. meningitidis Nm2C4.3. Put plainly: Basement membrane (Gelatin-FITC matrix) degradation by infected endothelial cells. Type of assay: cell-based, human. The conditions noted are these: 150 μg/ml Gentamicin, 24 h post-infection. As to the method:
(A) Experimental procedure: HBMECs grown on a fluorescent matrix (Gelatin-Fitc) were colonized by N. meningitidis for 6 h. They were then treated with 150 μg/ml gentamicin for 1 h, then 15 min with Trifluoperazine (50 μM) (or solvent alone as control) and incubated for further 15 h in the presence of 150 μg/ml gentamicin. (B) Fluorescence microscopy was used to visualize cells stained with labelled phalloidin and the fluorescent matrix. The presence of dark zones corresponds to zones of matrix degradation. (C) Quantification of the percentage of matrix degradation, using Image J software.
Plastic coverslips (13 mm diameter) (Nalgen #174950) were washed in ethanol 70%, dried then coated with poly-L-lysine 1 mg/ml for 20 min at room temperature. After one wash in sterile PBS, 0.5% Glutaraldehyde was added for 15 min at room temperature. After three washes in PBS, Gelatin-FITC (0.2 mg/ml Invitrogen #G13187) was added for 10 minutes at room temperature in the dark. Coverslip were then washed with sterile PBS and treated with 5 mg/ml sodium borohydride for 3 min. After three washes in sterile PBS, 10^5 HDMECs (PromoCell #C-12210) were seeded per well in their PromoCell culture medium and incubated overnight at 37° C. 5% CO2. The day after, cells were infected with N. meningitidis Nm2C4.3, as above described. […] Quantifications were performed using ImageJ software (NIH).

Assay [3] concerns Nm2C4.3 microcolonies on HCMEC/D3 human brain endothelial cell line. Kind of assay: Dispersion of meningococcal microcolonies on human brain endothelial cells. To be noted: 10-40 μM, 30 min. In kind it is cell-based, Neisseria meningitidis. Here is the method:
A. HBMEC were infected with Nm2C4.3 for 1 h 30, treated with Trifluoperazine (10-40 μM) for 30 minutes, before fixation and immunofluorescence analysis using anti-Nm2C4.3 antibody and Alexa Fluor 633 Phalloidin. B. Quantification of the bacterial colonization was performed using Image J software.
HCMEC/D3, a well-established human brain endothelial cell line (Weksler et al, 2013) was grown in EBM-2 basal medium (Lonza, Walkersville, Md., USA) supplemented with 5% Fetal Bovine Serum “Gold”, 10 mM HEPES (PM Laboratories GmbH, Pasching, Austria), 1% Penicillin-Streptomycin, 1% chemically defined lipid concentrate (Invitrogen Ltd, Paisley, UK), 1.4 μM hydrocortisone, 5 μg·ml^−1 ascorbic acid and 1 ng·ml^−1 bFGF (Sigma-Aldrich, St. Louis, Mo.). Cells were grown on Thermanox coverslips coated with rat collagen I for 4 days at 37° C. in a humidified incubator in 5% CO2. Cells were then infected with a suspension of Nm2C4.3 (˜10^7 CFU/ml) in EBM2/FBS during 30 minutes to allow bacterial adhesion. Cells were then washed three times with medium to remove non-adherent bacteria and infection was pursued for 1 h 30: adherent bacteria grew at the endothelial cell surface and formed micro-colonies. Trifluoperazine was then added to obtain final concentrations of 10, 20, 30 and 40 μM. […] Quantification was done with ImageJ software (NIH). […]

For assay [4], the system named is meningococcal colonization of the human dermal vasculature. Put plainly: In vivo meningococcal infection of mice engrafted with human skin.

The record followed here is patent publication US20200222418A1, “USE OF PHENOTHIAZINE DERIVATIVE IN THE TREATMENT OF INFECTION CAUSED BY BACTERIA CARRYING TYPE IV PILI” (priority 2017, published 2020).

In the case of `CN[C@@H]1[C@@H](O)C(O[C@@H]2[C@@H](O)[C@H](O[C@H]3O[C@H]([C@@H](C)NC)CC[C@H]3N)[C@@H](N)C[C@H]2N)OC[C@]1(C)O` (stereo partly drawn) [Gentamicin, (3R,4R,5R)-2-{[(1S,2S,3R,4S,6R)-4,6-diamino-3-{[(2R,3R,6S)-3-amino-6-[(1R)-1-(methylamino)ethyl]oxan-2-yl]oxy}-2-hydroxycyclohexyl]oxy}-5-methyl-4-(methylamino)oxane-3,5-diol], the bactericidal effect result in assay [1] is recorded as “killed all bacteria”. For the same molecule, in assay [2], the “degradation of the basement membrane” value was “about 20%”.
For `CN1CCN(CCCN2c3ccccc3Sc3ccc(C(F)(F)F)cc32)CC1` [Trifluoperazine], the bactericidal effect result in assay [1] was “moderate bactericidal effect”. Also, the “viable count of the culture” value in assay [1] (Trifluoperazine 10 to 30 μM, culture contained 10^7 CFU/ml) is 10^6 CFU/ml. In assay [3], the “dispersion of meningococcal microcolonies at the surface of human brain endothelial cells” value is given as “induced their dispersion”. Besides, in assay [4], the “colonization of the human dermal vasculature” value was “prevents the massive colonization”, the “incidence of vascular alteration” value is “reduces incidence of vascular alteration” and the “signs of intravascular coagulation” value is recorded as “reduces the signs of intravascular coagulation”. In assay [4] (alone or in combination with cefotaxime), the “hallmark of vascular inflammation” value is reported as “drastically reduced”.
